Assays:
Format in all cases: cell-based
PLOD3 = test: Gene-expression analysis in normal human dermal fibroblasts: PLOD3; settings: 24 hrs
Protocol: PLOD3: The enzyme catalyzes the hydroxylation of lysyl residues in collagen-like peptides. The resultant hydroxylysyl groups are attachment sites for carbohydrates in collagen and thus are critical for the stability of intermolecular crosslinks.
(§1) Normal human dermal fibroblasts at passage 7 from a donor were cultured in DMEM with L-glutamine 2 mM, Penicillin 50 U/ml-Streptomycin 50 ug/ml and 10% FCS in a 5% CO2 atmosphere at 37° C. After equilibration of cell in 1% FCS for 24 hrs the respective peptides H-(beta-Ala)-Pro-Dab-NH-benzyl [CAS 823202-99-9], respectively N-palmitoyl-Gly-His-Lys [147732-56-7]/N-palmitoyl-Gly-Gln-Pro-Arg [221227-C5-0] (2:1) diluted in growth medium to a concentration of 0.01% were added and the cells were incubated for an additional 24 hrs. At the end of incubation cells were washed in PBS and immediately frozen at −80° C. Total RNA was extracted using NucleoSpin RNA Plus kit (Macherey-Nagel) according to supplier's instructions. cDNA was synthesized by reverse transcription of total RNA using Transcriptor Reverse Transcriptase (Roche). PCR was performed on a LightCycler device (Roche Molecular Systems Inc.) according to manufacturer's instructions. Raw data were analyzed using Microsoft Excel.

LOXL2 = test: Gene-expression analysis in normal human dermal fibroblasts: LOXL2; settings: peptide 0.01%, 24 hrs
Protocol: LOXL2: This gene encodes a member of the lysyl oxidase gene family that catalyses the first step in the formation of crosslinks in collagens.
as §1

PCOLCE = test: Gene-expression analysis in normal human dermal fibroblasts: PCOLCE; settings: peptide 0.01%, 24 hrs
Protocol: PCOLCE: This gene encodes a glycoprotein which binds and drives the enzymatic cleavage of type I procollagen upon secretion from the cell, to yield the mature triple helical, highly structured fibrils.
as §1

ADAMTS2 = test: Gene-expression analysis in normal human dermal fibroblasts: ADAMTS2; settings: peptide 0.01%, 24 hrs
Protocol: ADAMTS2 is responsible for processing several types of procollagen proteins. Specifically, this enzyme clips a short chain of amino acids off one end of the procollagen. This clipping step is necessary for collagen molecules to function normally and assemble into fibrils outside cells.
as §1

In the case of “H-(beta-Ala)-Pro-Dab-NH-benzyl [H-(β-Ala)-Pro-Dab-NH-benzyl]”, the PLOD3 gene expression (PLOD3; normal human dermal fibroblasts, peptide 0.01%) is reported as 299%, the “upregulation of genes involved in collagen fiber maturation (in words)” value (PLOD3; summary over PLOD3, LOXL2, PCOLCE, ADAMTS2, fibroblasts, 0.01%) is reported as “significantly upregulates” and the LOXL2 gene expression (LOXL2) is reported as 237%. The PCOLCE gene expression (PCOLCE) was 137% and the ADAMTS2 gene expression (ADAMTS2) was 151%.

Reference: patent US10328011B2, “Use of proline containing dipeptides” (DSM IP ASSETS B.V., priority 2015, dated 2019)
